The subject of this experiment is calcium channels. Conditions: read-out: IC50 values for blocking calcium channels; cerebellar granule cells of 8 day old rats, 6, 7 and 8 days of culture; fura2/AM fluorescence, 37°C.

Consider `COc1ccc(CCN(C)CCCC(C#N)(c2ccc(OC)c(OC)c2)C(C)C)cc1OC` (stereo not shown) [Verapamil], for which the IC50 was found to be 4.8 µM.

These data come from EP0668872B1 (priority 1992, dated 1994).
